The values that follow come from paper PMC12714728, “VHH antibody loop guides design of a synthetic macrocyclic peptide that potently blocks influenza virus membrane fusion” (npj Viruses, 2025).

A short description of data set [1]: In vitro cell permeability assay. As to conditions: for efflux ratio at 120 min, 30 nM / Papp B→A at 120 min, 30 nM / Papp B→A at 120 min, 5 µM: LLC-Parent; for Papp B→A at 120 min, 30 nM / Papp B→A at 120 min, 5 µM: basolateral to apical.
In a further data set the test system is P-gp (MDR1). The experiment in a line: In vitro cell permeability / P-gp substrate assay. As to conditions: pig; for Papp A→B at 120 min, 30 nM / Papp A→B at 120 min, 5 µM: LLC-MDR1, apical to basolateral; for Papp B→A at 120 min, 30 nM / Papp B→A at 120 min, 5 µM: LLC-MDR1, basolateral to apical.
Data set [2] relates to H1/Cal HA (A/California/07/2009 (H1N1)). The class given is binding, influenza A virus.
Data set [3] has as its system H1/NCa HA (A/New Caledonia/20/1999 (H1N1)). The class given is binding, influenza A virus.
The test system of data set [4] is H5/Viet HA (A/Vietnam/1203/2004 (H5N1)). It is filed as binding, influenza A virus.
Data set [5] deals with H1N1 A/Brisbane/59/2007 (H1/Bri) HA. The class given is biochemical, influenza A virus. The following applies: pH 5.25.
The target in data set [6] is group 1 H1/Cal, H1/NCa, and H5/Viet HAs. It is filed as binding, influenza A virus. The following applies: read-out: KD by SPR (range over HAs). Background: SPR reads the build-up and loss of mass on a sensor chip optically.
Data set [7] relates to group 1 H1/Cal, H1/NCa, and H5/Viet HAs. It is filed as binding, influenza A virus. As to conditions: read-out: IC50 in AlphaLISA (range over HAs). In general terms: Bead proximity is the source of the signal in Alpha formats.
[8] abbreviates: pig, LLC-PK1, pH 7.4, Papp BA, no inhibitor.
The mark [9] stands for this setting: LLC-PK1, pH 7.4, Papp AB, no inhibitor.
[10] abbreviates: LLC-PK1, pH 7.4, Papp BA, no inhibitor.

Starred links: 1 amine or outer side, 2 acyl side, 3 side chain; linkers in the order of their positions; H or OH if unused. Positions of bridges follow the written chain, without caps; N, C: chain ends. Non-standard residues stand in square brackets, D forms with d. Residues, ends and D or L forms follow the SMILES beside them. ξ: configuration not given here. ξhhPhe = NC(CCCc1ccccc1)C(=O)O; Suc = O=C(CCC(=O)[*:2])[*:1]; dAbu = CC[C@@H](N)C(=O)O

As for `C[C@H]1O[C@@H](O[C@H]2[C@@H](O)C[C@H](O[C@H]3[C@@H](O)C[C@H](O[C@H]4CC[C@@]5(C)[C@H](CC[C@@H]6[C@@H]5C[C@@H](O)[C@]5(C)[C@@H](C7=CC(=O)OC7)CC[C@]65O)C4)O[C@@H]3C)O[C@@H]2C)C[C@H](O)[C@@H]1O` [3H-Digoxin, Digoxin, reference compound], the Papp A→B at 120 min, 30 nM in data set [1] (pig, LLC-PK1, pH 7.4) was 2.45 ± 0.1 ×10⁻⁶ cm/s; with P-gp (MDR1) (setting [9]), 0.45 ± 0.08 ×10⁻⁶ cm/s; with P-gp (MDR1) (LLC-PK1, pH 7.4, with elacridar (GF120918) 5 µM, Papp AB, + 5 µM GF120918), 2.98 ± 0.15 ×10⁻⁶ cm/s. Also, the efflux ratio at 120 min, 30 nM stood at 0.94 in data set [1] (pig, LLC-PK1, pH 7.4, Efflux ratio BA/AB, no inhibitor); 0.9 in data set [1] (pig, LLC-PK1, pH 7.4, with elacridar (GF120918) 5 µM, Efflux ratio BA/AB, + 5 µM GF120918); 22.6 with P-gp (MDR1) (LLC-PK1, pH 7.4, Efflux ratio BA/AB, LLC-MDR1, no inhibitor); 0.91 with P-gp (MDR1) (LLC-PK1, pH 7.4, with elacridar (GF120918) 5 µM, Efflux ratio BA/AB, LLC-MDR1, + 5 µM GF120918). The Papp B→A at 120 min, 30 nM came to 2.31 ± 0.15 ×10⁻⁶ cm/s in data set [1] (setting [8]); 2.37 ± 0.08 ×10⁻⁶ cm/s in data set [1] (pig, LLC-PK1, pH 7.4, with elacridar (GF120918) 5 µM, Papp BA, + 5 µM GF120918); 10.3 ± 0.2 ×10⁻⁶ cm/s in the data set on P-gp (MDR1) (setting [10]); 2.72 ± 0.05 ×10⁻⁶ cm/s with P-gp (MDR1) (LLC-PK1, pH 7.4, with elacridar (GF120918) 5 µM, Papp BA, + 5 µM GF120918).
For `CSCC[C@@H]1NC(=O)CNC(=O)CNC(=O)[C@H](C)NC(=O)[C@H](C(C)C)NC(=O)CNC(=O)[C@H](CC(C)C)NC(=O)[C@@H]2CCCN2C(=O)[C@H](CC(=O)O)NC(=O)[C@H](CCCNC(=N)N)NC(=O)[C@H](Cc2ccc(O)cc2)NC(=O)[C@@H](NC(=O)CCC(=O)O)CSSC[C@@H](C(N)=O)NC1=O` [CP11], the IC50 in data set [2] was determined as 4100 ± 760 nM; in data set [3] it was 4990 ± 600 nM; in data set [4], 7.78 ± 2.63 µM; in data set [5], 8520 ± 390 nM.
In the case of `CSCC[C@@H]1NC(=O)CNC(=O)CNC(=O)[C@H](C)NC(=O)[C@H](C(C)C)NC(=O)CNC(=O)[C@H](CC(C)C)NC(=O)[C@@H]2CCCN2C(=O)[C@H](CC(=O)O)NC(=O)[C@H](CCC(=O)O)NC(=O)[C@H](Cc2ccc(O)cc2)NC(=O)[C@H](CC(C)C)NC(=O)CNC1=O` [CP14], the IC50 in data set [2] was determined as 1720 ± 240 nM; in data set [3] it was 1240 ± 150 nM; in data set [4] it was 10 ± 0.91 µM; in data set [5], 1240 ± 30 nM. The molecule further returned a recovery in data set [1] (LLC-PK1) of 96.5%. The Papp A→B at 120 min, 5 µM is 0.11 ×10⁻⁶ cm/s in data set [1] (pig, LLC-PK1, pH 7.4); 0.26 ± 0.04 ×10⁻⁶ cm/s in the data set on P-gp (MDR1) (setting [9]); 0.25 ± 0.01 ×10⁻⁶ cm/s with P-gp (MDR1) (LLC-PK1, pH 7.4, with 5 µM GF120918 (elacridar), Papp AB, + 5 µM GF120918). For the same molecule, the basolateral-to-apical permeability (Papp B→A) at 120 min, 5 µM amounted to 0.12 ± 0.01 ×10⁻⁶ cm/s in data set [1] (setting [8]); 0.11 ± 0.01 ×10⁻⁶ cm/s in data set [1] (pig, LLC-PK1, pH 7.4, with 5 µM GF120918 (elacridar), Papp BA, + 5 µM GF120918); 0.32 ± 0.05 ×10⁻⁶ cm/s in the data set with P-gp (MDR1) (setting [10]); 0.33 ± 0.05 ×10⁻⁶ cm/s with P-gp (MDR1) (LLC-PK1, pH 7.4, with 5 µM GF120918 (elacridar), Papp BA, + 5 µM GF120918).
Regarding `CSCC[C@@H]1NC(=O)CNC(=O)CNC(=O)[C@H](C)NC(=O)[C@H](C(C)C)NC(=O)CNC(=O)[C@H](CC(C)C)NC(=O)[C@@H]2CCCN2C(=O)[C@H](CC(=O)O)NC(=O)[C@H](CCC(=O)O)NC(=O)[C@H](Cc2ccc(O)cc2)NC(=O)[C@@H](NC(=O)CCC(=O)O)CSSC[C@@H](C(N)=O)NC1=O` [CP12], the IC50 in data set [2] was found to be 6380 ± 170 nM; in data set [3], 4950 ± 380 nM; in data set [4], 28.8 ± 10.2 µM.
Regarding `CSCC[C@@H]1NC(=O)CNC(=O)CNC(=O)[C@H](C)NC(=O)[C@H](C(C)C)NC(=O)CNC(=O)[C@H](CC(C)C)NC(=O)[C@@H]2CCCN2C(=O)[C@H](CC(=O)O)NC(=O)[C@H](CCCNC(=N)N)NC(=O)[C@H](Cc2ccc(O)cc2)NC(=O)[C@H](CC(C)C)NC(=O)[C@@H](NC(=O)CCC(=O)O)CSSC[C@@H](C(N)=O)NC(=O)CNC1=O` [CP8], the IC50 was 110 nM in data set [2]; 160 ± 20 nM in data set [3]; 1.55 ± 0.29 µM in data set [4]; 540 ± 10 nM in data set [5]; 110 to 1550 nM in data set [7]. The Kd in data set [6] was in the range of 320 to 330 nM.
As for `CSCC[C@@H]1NC(=O)CNC(=O)CNC(=O)[C@H](C)NC(=O)[C@H](C(C)C)NC(=O)CNC(=O)[C@H](CC(C)C)NC(=O)[C@@H]2CCCN2C(=O)[C@H](CC(=O)O)NC(=O)[C@H](CCC(=O)O)NC(=O)[C@H](Cc2ccc(O)cc2)NC(=O)[C@H](CC(C)C)NC(=O)[C@@H](NC(=O)CCC(=O)O)CSSC[C@@H](C(N)=O)NC(=O)CNC1=O` [CP9], the IC50 in data set [2] came to 300 ± 30 nM; in data set [3], 700 ± 20 nM; in data set [4] it was 5.59 ± 0.21 µM; in data set [5] it was 230 ± 20 nM.
The matching figures for `CSCC[C@@H]1NC(=O)[C@H](CCC(=O)O)NC(=O)CNC(=O)[C@H](C)NC(=O)[C@H](C(C)C)NC(=O)CNC(=O)[C@H](CC(C)C)NC(=O)[C@@H]2CCCN2C(=O)[C@H](CC(=O)O)NC(=O)[C@H](CCCNC(=N)N)NC(=O)[C@H](Cc2ccc(O)cc2)NC(=O)[C@@H](NC(=O)CCC(=O)O)CSSC[C@@H](C(N)=O)NC1=O` [CP13]: 11800 ± 2610 nM, 12790 ± 90 nM, 39.8 ± 12.2 µM and 39400 ± 8320 nM.
For `CSCC[C@@H]1NC(=O)CNC(=O)CNC(=O)[C@H](C)NC(=O)[C@H](C(C)C)NC(=O)CNC(=O)[C@H](CC(C)C)NC(=O)[C@@H]2CCCN2C(=O)[C@H](CC(=O)O)NC(=O)[C@H](CCC(=O)O)NC(=O)[C@H](Cc2ccc(O)cc2)NC(=O)[C@H](CC(C)C)NC(=O)[C@H]2CCCN2C(=O)[C@@H]2CCCN2C(=O)CNC1=O` [CP3], the 50% inhibitory concentration (IC50) in data set [2] was found to be 1710 ± 190 nM; in data set [3] it was 2010 ± 540 nM; in data set [4], 27.1 ± 2.79 µM; in data set [5] it was 2780 ± 260 nM.
In the same order, the values of `CSCC[C@@H]1NC(=O)[C@H](CCC(=O)O)NC(=O)CNC(=O)[C@H](C)NC(=O)[C@H](C(C)C)NC(=O)CNC(=O)[C@H](CC(C)C)NC(=O)[C@@H]2CCCN2C(=O)[C@H](CC(=O)O)NC(=O)[C@H](CCCNC(=N)N)NC(=O)[C@H](Cc2ccc(O)cc2)NC(=O)[C@H](CC(C)C)NC(=O)[C@@H](NC(=O)CCC(=O)O)CSSC[C@@H](C(N)=O)NC(=O)CNC1=O` [CP10] (Suc-CLYRDPLGVAGEMGC-NH2; disulfide 1-15) are 610 ± 80 nM, 2930 ± 320 nM, 7.61 ± 1.56 µM and 460 ± 40 nM.
In the same order, the values of `CC[C@H]1NC(=O)[C@H](C(C)C)NC(=O)CNC(=O)C(CCCc2ccccc2)NC(=O)[C@@H]2CCCN2C(=O)[C@H](CC(=O)O)NC(=O)[C@H](CCC(=O)O)NC(=O)[C@H](Cc2ccc(O)cc2)NC(=O)[C@H](CC(C)C)NC(=O)[C@H]2CCCN2C(=O)CNC(=O)CNC(=O)[C@H](CCSC)NC(=O)CNC(=O)CNC1=O` (stereo partly drawn) [CP7] (cyclo([dP]LYEDP[ξhhPhe]GV[dAbu]GGMGG)) are 360 ± 10 nM, 220 ± 10 nM, 14.8 ± 0.57 µM and 3540 ± 310 nM.
In the same order, the values of `CSCC[C@@H]1NC(=O)CNC(=O)CNC(=O)[C@H](C)NC(=O)[C@H](C(C)C)NC(=O)CNC(=O)[C@H](CC(C)C)NC(=O)[C@@H]2CCCN2C(=O)[C@H](CC(=O)O)NC(=O)[C@H](CCC(=O)O)NC(=O)[C@H](Cc2ccc(O)cc2)NC(=O)[C@H](CC(C)C)NC(=O)[C@H](CO)NC(=O)[C@@H]2CCCN2C(=O)[C@H]2CCCN2C(=O)[C@H](C(C)C)NC(=O)CNC1=O` [CP2] are 5130 nM, 12700 ± 1640 nM, 55.1 µM and 21900 ± 3240 nM.
On to `CSCC[C@@H]1NC(=O)CNC(=O)CNC(=O)[C@H](C)NC(=O)[C@H](C(C)C)NC(=O)CNC(=O)[C@H](CC(C)C)NC(=O)[C@@H]2CCCN2C(=O)[C@H](CC(=O)O)NC(=O)[C@H](CCC(=O)O)NC(=O)[C@H](Cc2ccc(O)cc2)NC(=O)[C@H](CC(C)C)NC(=O)[C@H]2CCCN2C(=O)CNC(=O)CNC1=O` [CP6], for which the IC50 is 1090 ± 200 nM in data set [2], 1470 ± 320 nM in data set [3], 13.5 ± 2.17 µM in data set [4] and 2740 ± 900 nM in data set [5].
For the molecule `CSCC[C@@H]1NC(=O)CNC(=O)CNC(=O)[C@H](C)NC(=O)[C@H](C(C)C)NC(=O)CNC(=O)[C@H](CC(C)C)NC(=O)[C@@H]2CCCN2C(=O)[C@H](CC(=O)O)NC(=O)[C@H](CCC(=O)O)NC(=O)[C@H](Cc2ccc(O)cc2)NC(=O)[C@H](CC(C)C)NC(=O)[C@H](CO)NC(=O)CNC(=O)[C@H]2CCCN2C(=O)[C@H](C(C)C)NC(=O)CNC1=O` [CP5], the IC50 in data set [2] is 4630 nM; in data set [5], 17000 ± 4580 nM.

As a reminder, the Papp A→B is the apparent permeability from the apical to the basolateral side of a cell layer. The term efflux ratio denotes the permeability from basolateral to apical divided by that in the opposite direction, in the common usage. In general, Papp B→A refers to the apparent permeability from the basolateral to the apical side of a cell layer. The term IC50 denotes the concentration needed to halve the response being measured. What is called Kd is the free concentration of one partner at which half of the binding sites on the other are occupied at equilibrium, for simple one-to-one binding.
